Reference: patent US11667649B2, “Heteroaromatic macrocyclic ether chemotherapeutic agents” (Nuvalent, Inc., priority 2020, dated 2023)

System: TPM3-NTRK1-wt IC50 / primary target (e.g. CD74-ROS1-wt) IC50, Ba/F3 cells
Test: Cell assay TRKA selectivity (TRKA potency divided by primary target potency)
Type: cell-based
Conditions: for TPM3-NTRK1-wt/CD74-ROS1-G2032R: TRKA selectivity ratio: TPM3-NTRK1-wt IC50 / CD74-ROS1-G2032R IC50, Ba/F3 cells; for TPM3-NTRK1-wt/CD74-ROS1-wt: TRKA selectivity ratio: TPM3-NTRK1-wt IC50 / CD74-ROS1-wt IC50, Ba/F3 cells; for TPM3-NTRK1-wt/EML4-ALK-L1196M-G1202R: TRKA selectivity ratio: TPM3-NTRK1-wt IC50 / EML4-ALK-L1196M-G1202R IC50, Ba/F3 cells; for TPM3-NTRK1-wt/EML4-ALK-wt: TRKA selectivity ratio: TPM3-NTRK1-wt IC50 / EML4-ALK-wt IC50, Ba/F3 cells
Method in brief: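 IL-3-independent Ba/F3 lines stably expressing TPM3-TRKA or the primary fusion (e.g. CD74-ROS1 wt) were exposed to 3-fold compound dilutions for 72 h. Viability was read by CellTiter-Glo luminescence, with IC50 from four-parameter logistic fit. Selectivity is TPM3-NTRK1 IC50 divided by primary-target IC50, binned A (>30-fold) to D (<1).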

Structure (SMILES): CCn1nc2c(c1C#N)-c1cnc(N)c(c1)O[C@H](C)c1cc(F)ccc1-n1nccc1C2 [Example 119, (19R)-22-amino-4-ethyl-16-fluoro-19-methyl-20-oxa-4,5,11,12,23-pentaazapentacyclo[19.3.1.0^2,^6.0^8,^12.0^13,^18]pentacosa-1(24),2,5,8,10,13,15,17,21(25),22-decaene-3-carbonitrile]
- TPM3-NTRK1-wt/CD74-ROS1-G2032R: D (bin D for low selectivity, ratio<1)
- TPM3-NTRK1-wt/CD74-ROS1-wt: A (bin A for very high selectivity, ratio>30-fold)
- TPM3-NTRK1-wt/EML4-ALK-L1196M-G1202R: D (bin D for low selectivity, ratio<1)
- TPM3-NTRK1-wt/EML4-ALK-wt: A (bin A for very high selectivity, ratio>30-fold)

Structure (SMILES): CCn1ncc2c1-c1cnc(N)c(c1)OCc1cc(F)ccc1-n1nccc1C2 [Example 41, 3-ethyl-16-fluoro-20-oxa-3,4,11,12,23-pentaazapentacyclo[19.3.1.0^2,^6.0^8,^12.0^13,^18]pentacosa-1(24),2(6),4,8,10,13,15,17,21(25),22-decaen-22-amine]
- TPM3-NTRK1-wt/CD74-ROS1-G2032R: A (bin A for very high selectivity, ratio>30-fold)
- TPM3-NTRK1-wt/CD74-ROS1-wt: A (bin A for very high selectivity, ratio>30-fold)
- TPM3-NTRK1-wt/EML4-ALK-L1196M-G1202R: B (bin B for high selectivity, ratio>10-fold)
- TPM3-NTRK1-wt/EML4-ALK-wt: A (bin A for very high selectivity, ratio>30-fold)

Structure (SMILES): Cc1nc2c(s1)Cn1ncc(C(F)F)c1-c1cnc(N)c(c1)O[C@H](C)c1cc(F)ccc1-2 [Example 68, (19R)-3-(difluoromethyl)-16-fluoro-10,19-dimethyl-20-oxa-9-thia-5,6,11,23-tetraazapentacyclo[19.3.1.0^2,^6.0^8,^12.0^13,^18]pentacosa-1(24),2,4,8(12),10,13,15,17,21(25),22-decaen-22-amine]
- TPM3-NTRK1-wt/CD74-ROS1-G2032R: B (bin B for high selectivity, ratio>10-fold)
- TPM3-NTRK1-wt/CD74-ROS1-wt: A (bin A for very high selectivity, ratio>30-fold)
- TPM3-NTRK1-wt/EML4-ALK-L1196M-G1202R: C (bin C for moderate selectivity, ratio≥1)
- TPM3-NTRK1-wt/EML4-ALK-wt: B (bin B for high selectivity, ratio>10-fold)

Structure (SMILES): C[C@H]1Oc2cc(cnc2N)-c2c(cnn2CC2CC2)Cc2cn(C(F)F)nc2-c2ccc(F)cc21 [Example 160, (19R)-3-(cyclopropylmethyl)-10-(difluoromethyl)-16-fluoro-19-methyl-20-oxa-3,4,10,11,23-pentaazapentacyclo[19.3.1.0^2,^6.0^8,^12.0^13,^18]pentacosa-1(24),2(6),4,8,11,13,15,17,21(25),22-decaen-22-amine]
- TPM3-NTRK1-wt/CD74-ROS1-G2032R: A (bin A for very high selectivity, ratio>30-fold)
- TPM3-NTRK1-wt/CD74-ROS1-wt: A (bin A for very high selectivity, ratio>30-fold)
- TPM3-NTRK1-wt/EML4-ALK-L1196M-G1202R: A (bin A for very high selectivity, ratio>30-fold)
- TPM3-NTRK1-wt/EML4-ALK-wt: A (bin A for very high selectivity, ratio>30-fold)

Structure (SMILES): C[C@H]1Oc2cc(cnc2N)-c2c(C#N)cnn2Cc2ccnn2-c2ccc(F)cc21 [Example 62, (19R)-22-amino-16-fluoro-19-methyl-20-oxa-5,6,11,12,23-pentaazapentacyclo[19.3.1.0^2,^6.0^8,^12.0^13,^18]pentacosa-1(24),2,4,8,10,13,15,17,21(25),22-decaene-3-carbonitrile]
- TPM3-NTRK1-wt/CD74-ROS1-G2032R: B (bin B for high selectivity, ratio>10-fold)
- TPM3-NTRK1-wt/CD74-ROS1-wt: A (bin A for very high selectivity, ratio>30-fold)
- TPM3-NTRK1-wt/EML4-ALK-L1196M-G1202R: C (bin C for moderate selectivity, ratio≥1)
- TPM3-NTRK1-wt/EML4-ALK-wt: A (bin A for very high selectivity, ratio>30-fold)

Structure (SMILES): Cc1nc(C#N)c2n1Cc1cccnc1-c1ccc(F)cc1[C@@H](C)Oc1cc-2cnc1N [Example 18, (20R)-23-amino-17-fluoro-5,20-dimethyl-21-oxa-4,6,12,24-tetraazapentacyclo[20.3.1.0^2,^6.0^8,^13.0^14,^19]hexacosa-1(25),2,4,8(13),9,11,14,16,18,22(26),23-undecaene-3-carbonitrile]
- TPM3-NTRK1-wt/CD74-ROS1-G2032R: A (bin A for very high selectivity, ratio>30-fold)
- TPM3-NTRK1-wt/CD74-ROS1-wt: A (bin A for very high selectivity, ratio>30-fold)
- TPM3-NTRK1-wt/EML4-ALK-L1196M-G1202R: A (bin A for very high selectivity, ratio>30-fold)
- TPM3-NTRK1-wt/EML4-ALK-wt: A (bin A for very high selectivity, ratio>30-fold)

Structure (SMILES): C[C@H]1Oc2cc(cnc2N)-c2c(C#N)cnn2Cc2cccnc2-c2ccc(F)cc21 [Example 14, (20R)-23-amino-17-fluoro-20-methyl-21-oxa-5,6,12,24-tetraazapentacyclo[20.3.1.0^2,^6.0^8,^13.0^14,^19]hexacosa-1(25),2,4,8(13),9,11,14,16,18,22(26),23-undecaene-3-carbonitrile]
- TPM3-NTRK1-wt/CD74-ROS1-G2032R: B (bin B for high selectivity, ratio>10-fold)
- TPM3-NTRK1-wt/CD74-ROS1-wt: A (bin A for very high selectivity, ratio>30-fold)
- TPM3-NTRK1-wt/EML4-ALK-L1196M-G1202R: C (bin C for moderate selectivity, ratio≥1)
- TPM3-NTRK1-wt/EML4-ALK-wt: A (bin A for very high selectivity, ratio>30-fold)

Structure (SMILES): CCc1nsc2c1-c1cnc(N)c(c1)O[C@H](C)c1cc(F)ccc1-c1nn(C)cc1C2 [Example 155, (19R)-3-ethyl-16-fluoro-10,19-dimethyl-20-oxa-5-thia-4,10,11,23-tetraazapentacyclo[19.3.1.0^2,^6.0^8,^12.0^13,^18]pentacosa-1(24),2(6),3,8,11,13,15,17,21(25),22-decaen-22-amine]
- TPM3-NTRK1-wt/CD74-ROS1-G2032R: C (bin C for moderate selectivity, ratio≥1)
- TPM3-NTRK1-wt/CD74-ROS1-wt: A (bin A for very high selectivity, ratio>30-fold)
- TPM3-NTRK1-wt/EML4-ALK-L1196M-G1202R: D (bin D for low selectivity, ratio<1)
- TPM3-NTRK1-wt/EML4-ALK-wt: A (bin A for very high selectivity, ratio>30-fold)

Structure (SMILES): Cc1cc2n(n1)-c1ccc(F)cc1COc1cc(cnc1N)-c1c(cnn1CC1CC1)C2 [Example 126, 3-(cyclopropylmethyl)-16-fluoro-10-methyl-20-oxa-3,4,11,12,23-pentaazapentacyclo[19.3.1.0^2,^6.0^8,^12.0^13,^18]pentacosa-1(24),2(6),4,8,10,13,15,17,21(25),22-decaen-22-amine]
- TPM3-NTRK1-wt/CD74-ROS1-G2032R: A (bin A for very high selectivity, ratio>30-fold)
- TPM3-NTRK1-wt/CD74-ROS1-wt: A (bin A for very high selectivity, ratio>30-fold)
- TPM3-NTRK1-wt/EML4-ALK-L1196M-G1202R: A (bin A for very high selectivity, ratio>30-fold)
- TPM3-NTRK1-wt/EML4-ALK-wt: A (bin A for very high selectivity, ratio>30-fold)

Structure (SMILES): COc1cc2n(n1)-c1ccc(F)cc1[C@@H](C)Oc1cc(cnc1N)-c1c(c(C)nn1CC1CC1)C2 [Example 124, (19R)-3-(cyclopropylmethyl)-16-fluoro-10-methoxy-5,19-dimethyl-20-oxa-3,4,11,12,23-pentaazapentacyclo[19.3.1.0^2,^6.0^8,^12.0^13,^18]pentacosa-1(24),2(6),4,8,10,13,15,17,21(25),22-decaen-22-amine]
- TPM3-NTRK1-wt/CD74-ROS1-G2032R: A (bin A for very high selectivity, ratio>30-fold)
- TPM3-NTRK1-wt/CD74-ROS1-wt: A (bin A for very high selectivity, ratio>30-fold)
- TPM3-NTRK1-wt/EML4-ALK-L1196M-G1202R: A (bin A for very high selectivity, ratio>30-fold)
- TPM3-NTRK1-wt/EML4-ALK-wt: A (bin A for very high selectivity, ratio>30-fold)

Structure (SMILES): C[C@H]1Oc2cc(cnc2N)-c2c(CC(F)F)noc2Cc2cn(C)nc2-c2ccc(F)cc21 [Example 85, (19R)-3-(2,2-difluoroethyl)-16-fluoro-10,19-dimethyl-5,20-dioxa-4,10,11,23-tetraazapentacyclo[19.3.1.0^2,^6.0^8,^12.0^13,^18]pentacosa-1(24),2(6),3,8,11,13,15,17,21(25),22-decaen-22-amine]
- TPM3-NTRK1-wt/CD74-ROS1-G2032R: A (bin A for very high selectivity, ratio>30-fold)
- TPM3-NTRK1-wt/CD74-ROS1-wt: A (bin A for very high selectivity, ratio>30-fold)
- TPM3-NTRK1-wt/EML4-ALK-L1196M-G1202R: C (bin C for moderate selectivity, ratio≥1)
- TPM3-NTRK1-wt/EML4-ALK-wt: A (bin A for very high selectivity, ratio>30-fold)

Structure (SMILES): C[C@H]1Oc2cc(cnc2N)-c2c(C#N)ncn2Cc2cnccc2-c2ccc(F)cc21 [Example 10, (20R)-23-amino-17-fluoro-20-methyl-21-oxa-4,6,10,24-tetraazapentacyclo[20.3.1.0^2,^6.0^8,^13.0^14,^19]hexacosa-1(25),2,4,8(13),9,11,14,16,18,22(26),23-undecaene-3-carbonitrile]
- TPM3-NTRK1-wt/CD74-ROS1-G2032R: A (bin A for very high selectivity, ratio>30-fold)
- TPM3-NTRK1-wt/CD74-ROS1-wt: D (bin D for low selectivity, ratio<1)
- TPM3-NTRK1-wt/EML4-ALK-L1196M-G1202R: C (bin C for moderate selectivity, ratio≥1)
- TPM3-NTRK1-wt/EML4-ALK-wt: A (bin A for very high selectivity, ratio>30-fold)

Structure (SMILES): CCn1ncc2c1-c1cnc(N)c(c1)O[C@H](C)c1cc(F)ccc1-n1nc(C(F)(F)F)cc1C2 [Example 52, (19R)-3-ethyl-16-fluoro-19-methyl-10-(trifluoromethyl)-20-oxa-3,4,11,12,23-pentaazapentacyclo[19.3.1.0^2,^6.0^8,^12.0^13,^18]pentacosa-1(24),2(6),4,8,10,13,15,17,21(25),22-decaen-22-amine]
- TPM3-NTRK1-wt/CD74-ROS1-G2032R: A (bin A for very high selectivity, ratio>30-fold)
- TPM3-NTRK1-wt/CD74-ROS1-wt: A (bin A for very high selectivity, ratio>30-fold)
- TPM3-NTRK1-wt/EML4-ALK-L1196M-G1202R: C (bin C for moderate selectivity, ratio≥1)
- TPM3-NTRK1-wt/EML4-ALK-wt: B (bin B for high selectivity, ratio>10-fold)

Structure (SMILES): CCn1nc(OC)c2c1-c1cnc(N)c(c1)O[C@H](C)c1cc(F)ccc1-n1nc(C(F)F)cc1C2 [Example 147, (19R)-10-(difluoromethyl)-3-ethyl-16-fluoro-5-methoxy-19-methyl-20-oxa-3,4,11,12,23-pentaazapentacyclo[19.3.1.0^2,^6.0^8,^12.0^13,^18]pentacosa-1(24),2(6),4,8,10,13,15,17,21(25),22-decaen-22-amine]
- TPM3-NTRK1-wt/CD74-ROS1-G2032R: A (bin A for very high selectivity, ratio>30-fold)
- TPM3-NTRK1-wt/CD74-ROS1-wt: A (bin A for very high selectivity, ratio>30-fold)
- TPM3-NTRK1-wt/EML4-ALK-L1196M-G1202R: C (bin C for moderate selectivity, ratio≥1)
- TPM3-NTRK1-wt/EML4-ALK-wt: A (bin A for very high selectivity, ratio>30-fold)
